Legend:
[1] = tested on: cloned human 5-HT2B receptor; test: [3H]5-HT radioligand binding, cloned human 5-HT2B receptor; details: statement in words only, no value given
[2] = studies using radiolabelled compound, residues in saliva; assay type: in vivo
Experimental: For example, in the treatment of adult humans, dosages of from 0.25 to 30 mg, preferably from 1 to 20 mg, per day may be used. A once a day dosage is normally sufficient, although divided doses may be administered. For treatment of gastrointestinal disorders, a dose range of from 1 to 20 mg, preferably 2.5 to 15 mg per day is suitable.

Cc1cc2c(s1)Nc1ccccc1N=C2N1CCN(C)CC1 [2-methyl-4-(4-methyl-1-piperazinyl)-10H-thieno-[2,3-b][1,5]benzodiazepine]
5-HT2B receptor activity [1]: 5-HT2B receptor activity
residues of radiolabelled compound in saliva [2]: detected in the saliva
